Target: T1, 125I-TGF-β isoform-α2M* complexes (Homo sapiens, UniProt P01023)
T1 construct: was purified from pooled citrate-treate human plasma; from tissue; host or cells: pooled citrate-treated human plasma
T1 sequence (P01023 24-1474): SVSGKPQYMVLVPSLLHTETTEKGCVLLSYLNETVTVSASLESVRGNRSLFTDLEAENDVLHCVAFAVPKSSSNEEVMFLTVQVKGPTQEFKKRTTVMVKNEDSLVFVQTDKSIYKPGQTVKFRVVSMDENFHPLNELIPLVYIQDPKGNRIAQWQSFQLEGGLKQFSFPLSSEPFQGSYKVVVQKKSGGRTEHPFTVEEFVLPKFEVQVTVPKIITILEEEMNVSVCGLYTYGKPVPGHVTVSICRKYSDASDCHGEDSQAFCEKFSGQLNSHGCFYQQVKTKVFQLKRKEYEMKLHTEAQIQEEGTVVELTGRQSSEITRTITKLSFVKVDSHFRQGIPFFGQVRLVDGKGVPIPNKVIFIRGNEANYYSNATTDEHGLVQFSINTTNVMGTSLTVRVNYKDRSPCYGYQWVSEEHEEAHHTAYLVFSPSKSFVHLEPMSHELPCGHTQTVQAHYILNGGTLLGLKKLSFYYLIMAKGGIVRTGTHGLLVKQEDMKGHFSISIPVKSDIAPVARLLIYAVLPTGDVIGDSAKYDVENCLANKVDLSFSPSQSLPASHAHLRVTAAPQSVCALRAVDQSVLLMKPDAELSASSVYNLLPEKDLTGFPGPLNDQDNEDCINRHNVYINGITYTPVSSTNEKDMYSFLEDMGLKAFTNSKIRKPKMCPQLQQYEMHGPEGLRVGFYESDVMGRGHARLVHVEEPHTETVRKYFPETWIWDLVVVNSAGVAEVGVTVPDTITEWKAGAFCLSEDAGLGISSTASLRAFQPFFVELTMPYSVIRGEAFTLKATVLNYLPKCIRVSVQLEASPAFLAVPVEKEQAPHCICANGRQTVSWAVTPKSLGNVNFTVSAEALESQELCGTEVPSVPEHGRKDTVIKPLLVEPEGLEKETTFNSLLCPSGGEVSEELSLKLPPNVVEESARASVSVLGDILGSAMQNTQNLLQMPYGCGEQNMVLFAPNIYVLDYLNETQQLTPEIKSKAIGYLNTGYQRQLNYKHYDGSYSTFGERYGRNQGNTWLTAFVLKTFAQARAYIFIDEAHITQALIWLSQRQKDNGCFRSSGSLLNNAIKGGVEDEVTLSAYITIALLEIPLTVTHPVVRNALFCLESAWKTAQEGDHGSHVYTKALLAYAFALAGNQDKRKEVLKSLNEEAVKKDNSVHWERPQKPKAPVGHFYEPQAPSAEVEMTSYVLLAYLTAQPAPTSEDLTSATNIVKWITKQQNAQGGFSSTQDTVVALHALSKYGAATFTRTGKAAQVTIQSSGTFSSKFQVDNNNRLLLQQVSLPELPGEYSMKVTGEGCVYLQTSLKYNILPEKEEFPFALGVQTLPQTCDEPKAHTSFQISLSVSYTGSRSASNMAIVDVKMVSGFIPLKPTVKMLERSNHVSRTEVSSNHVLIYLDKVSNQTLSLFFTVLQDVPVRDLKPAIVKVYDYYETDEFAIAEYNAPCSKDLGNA
Experiment: Complex formation of 125I-TGF-β isoforms and α2M* by DSS cross-linking and 7.5% SDS-PAGE
Format: binding
Details: DSS cross-linking, effective concentrations comparable to non-denaturing PAGE
Description: TGF- ? isoforms bind to α2M* with different affinities: TGF ? β2>TGF ? β1 ( active sites of TGF ? β1 and TGF- ? 2 responsible for high-affinity binding to ? 2M* are disti from the low-affinity ? 2M* binding site in TGF- ? 3 (19). To determine if fatty acids differentially affect the binding of TGF- ? isoforms to ? 2M*, the effects of various concentrations of arachidonic acid and myristic acid on complex formation of ^125I-labeled TGF ? β isoforms and ? 2M were determined*. […] It inhibited 30% of the complex form . α2M* and TGF ? β2 and TGF ? β3 at 100 and >250 μM, respectively. Arachidon polyunsaturated fatty acid, was a stronger inhibitor of complex formation of ? 2M* and TGF-.β2/TGF ? β3. It inhibited 50% of the complex formation of ? 2M* and ^125I-TGF- ? 2 at 50 μM (FIG. 3A). The observation that myristic acid and arachidonic acid inhibited complex formation of ^125I-TGF- ? […] 2M* complexes in the reaction mixtures were then analyzed by 7.5% SDS-PAGE and autoradiography.
Complex formation of ^125I-TGF-β and ? […] After 30 min at room temperature, the complex formation of ^125I-TGF- ? and. α2M* was determined by 5% non-denaturing polyacrylamide gel electrophoresis (PAGE) or by 7.5% SDS-PAGE following cross-linking by 0.6 mM DSS. After electrophoresis, the gel was stained with Coomassie blue and analyzed by autoradiography. […] 2M* was quantified using a PhosphoImager (Fuji).

## CCCCC/C=C\C/C=C\C/C=C\C/C=C\CCCC(=O)O [arachidonic acid]
  blocking of cross-linked 125I-TGF-β isoform-α2M* complex formation: blocked complex formation

Reference: patent US20040229791A1, “Compositions and methods of modulating TGF-beta activity by fatty acids” (priority 2002, published 2004)
